Data on 24 molecules can be found in PubChem BioAssay AID192 (DTP/NCI, 2004).

This test relates to BDF1 mice, B16 melanoma ip, median survival T/C. In words: NCI In Vivo Anticancer Drug Screen. Data for tumor model B16 Melanoma (intraperitoneal) in B6D2F1 (BDF1) mice. Conditions: endpoint: median survival time, higher = longer survival. The gist of the method:
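In this screen, activity was judged from survival or tumor size in treated versus vehicle-treated tumor-bearing mice, reported as T/C.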

Setting [1] is: dose: 12.5 mg/kg/injection, schedule: Q01DX009 (ip), vehicle: Klucel (hydroxypropylcellulose) (HPC).
Setting [2] is: dose: 25.0 mg/kg/injection, schedule: Q01DX009 (ip), vehicle: Klucel (hydroxypropylcellulose) (HPC).
The mark [3] stands for this setting: dose: 50.0 mg/kg/injection, schedule: Q01DX009 (ip), vehicle: Klucel (hydroxypropylcellulose) (HPC).
The mark [4] stands for this setting: dose: 25.0 mg/kg/injection, schedule: Q01DX009 (ip), vehicle: saline with Tween-80.
Where [5] appears, read: dose: 50.0 mg/kg/injection, schedule: Q01DX009 (ip), vehicle: saline with Tween-80.
Setting [6] is: dose: 100.0 mg/kg/injection, schedule: Q01DX009 (ip), vehicle: saline with Tween-80.
[7] abbreviates: dose: 100.0 mg/kg/injection, schedule: Q01DX009 (ip), vehicle: Klucel (hydroxypropylcellulose) (HPC).
Where [8] appears, read: dose: 200.0 mg/kg/injection, schedule: Q01DX009 (ip), vehicle: Klucel (hydroxypropylcellulose) (HPC).
[9] abbreviates: dose: 400.0 mg/kg/injection, schedule: Q01DX009 (ip), vehicle: Klucel (hydroxypropylcellulose) (HPC).
The mark [10] stands for this setting: dose: 50.0 mg/kg/injection, schedule: Q04DX003 (ip), vehicle: saline.
Setting [11] is: dose: 100.0 mg/kg/injection, schedule: Q01DX009 (ip), vehicle: saline.
The mark [12] stands for this setting: dose: 200.0 mg/kg/injection, schedule: Q01DX009 (ip), vehicle: saline with Tween-80.
The mark [13] stands for this setting: dose: 12.5 mg/kg/injection, schedule: Q01DX009 (ip), vehicle: saline with Tween-80.

Molecules are shown by their SMILES. Values joined by “and” are separate entries in the source; they are usually repeats but may differ in a detail not shown here. Identical values can stand only once. Toxic doses and inconclusive results are not listed.

Consider `ClCCCCCCCCCCc1ccccc1`, for which the T/C was 90 % of control under setting [1], 90 % of control under setting [2] and 89 % of control under setting [3].

Take `CCCCn1cnc2c(SC)ncnc21`: the T/C is 90 % of control and 115 % of control under setting [4]; 87 % of control and 111 % of control under setting [5]; 92 % of control and 115 % of control under setting [6].

`CC1(CCl)OCCO1`: the T/C runs as follows: under setting [3], 96 % of control; under setting [7], 100 % of control; under setting [8], 100 % of control.

Consider `COc1cc2cc(c1Cl)N(C)C(=O)CC(OC(=O)C(C)N(C)C(=O)C(C)C)C1(C)OC1C(C)C1CC(O)(NC(=O)O1)C(OC)/C=C/C=C(C)C2` (configuration not stated), for which the T/C is 171 % of control (dose: 5.0 micrograms/kg/injection, schedule: Q01DX009 (ip), vehicle: saline + alcohol) and 177 % of control (dose: 10.0 micrograms/kg/injection, schedule: Q01DX009 (ip), vehicle: saline + alcohol).

With `CCC/C=C/C(C)C`, the T/C runs as follows: under setting [7], 95 % of control; under setting [8], 88 % of control; under setting [9], 95 % of control.

As for `CC1=C(/C=C/C(C)=N/NC(N)=O)C(C)(C)CCC1`, the T/C reads like this: under setting [10], 112 % of control; (dose: 100.0 mg/kg/injection, schedule: Q04DX003 (ip), vehicle: saline) 95 % of control; (dose: 200.0 mg/kg/injection, schedule: Q04DX003 (ip), vehicle: saline) 102 % of control.

As for `COc1cc2c(c3c1c(=O)c1ccccc1n3C)C=CC(C)(C)O2`, the T/C under setting [4] is 102 % of control and the T/C under setting [5] is 107 % of control.

For `OCC(O)c1ccccn1` (configuration not stated), the T/C under setting [11] is 123 % of control and the T/C (dose: 400.0 mg/kg/injection, schedule: Q01DX009 (ip), vehicle: saline) was 123 % of control.

As to `O=C/C=C/c1ccc([N+](=O)[O-])cc1`, the T/C under setting [4] is 100 % of control.

Regarding `Cc1ccc(C(=O)CCCCl)cc1C`, the T/C runs as follows: under setting [6], 100 % of control; under setting [12], 106 % of control; (dose: 400.0 mg/kg/injection, schedule: Q01DX009 (ip), vehicle: saline with Tween-80) 97 % of control.

As to `COC(=O)CC(=O)c1ccc(C)cc1`, the T/C reads like this: under setting [7], 103 % of control; under setting [8], 95 % of control.

`CC1(C)N=C(N)N=C(N)N1c1ccc(CCc2ccccc2)cc1`: the T/C was 97 % of control (dose: 0.75 mg/kg/injection, schedule: Q01DX009 (ip), vehicle: saline with Tween-80); 100 % of control (dose: 1.5 mg/kg/injection, schedule: Q01DX009 (ip), vehicle: saline with Tween-80); 102 % of control (dose: 3.0 mg/kg/injection, schedule: Q01DX009 (ip), vehicle: saline with Tween-80); 95 % of control (dose: 6.0 mg/kg/injection, schedule: Q01DX009 (ip), vehicle: saline with Tween-80).

Take `CCCCNC(=O)Nc1ccc(CC)cc1`: the T/C is, setting by setting: under setting [7], 100 % of control; under setting [8], 91 % of control.

`C(=N\Nc1nn[nH]n1)/c1ccccc1`: the T/C is, setting by setting: under setting [13], 92 % of control; under setting [4], 96 % of control; under setting [5], 89 % of control; under setting [6], 90 % of control.

For the molecule `O=[N+]([O-])c1ccc2ccccc2c1-c1c([N+](=O)[O-])ccc2ccccc12`, the T/C runs as follows: under setting [5], 97 % of control; under setting [6], 101 % of control; under setting [12], 97 % of control.

On to `Cc1cc2c(C(C)C)c(O)c(O)c(C=O)c2c(O)c1-c1c(C)cc2c(C(C)C)c(O)c(O)c(C=O)c2c1O`, for which the T/C (dose: 0.25 mg/kg/injection, schedule: Q01DX009 (ip), vehicle: Klucel (hydroxypropylcellulose) (HPC)) is 93 % of control; the T/C (dose: 0.5 mg/kg/injection, schedule: Q01DX009 (ip), vehicle: Klucel (hydroxypropylcellulose) (HPC)) was 91 % of control; the T/C (dose: 1.0 mg/kg/injection, schedule: Q01DX009 (ip), vehicle: Klucel (hydroxypropylcellulose) (HPC)) is 96 % of control; the T/C (dose: 2.0 mg/kg/injection, schedule: Q01DX009 (ip), vehicle: Klucel (hydroxypropylcellulose) (HPC)) is 104 % of control; the T/C (dose: 4.0 mg/kg/injection, schedule: Q01DX009 (ip), vehicle: Klucel (hydroxypropylcellulose) (HPC)) is 91 % of control; the T/C (dose: 8.0 mg/kg/injection, schedule: Q01DX009 (ip), vehicle: Klucel (hydroxypropylcellulose) (HPC)) is 91 % of control.

Turning to `CC1(C)C2CCC1(C)C(COC(=O)c1cc([N+](=O)[O-])cc([N+](=O)[O-])c1)C2` (configuration not stated), the T/C is, setting by setting: under setting [7], 96 % of control; under setting [8], 93 % of control; under setting [9], 87 % of control.

In the case of `NC(=O)CC1=NCCc2ccccc21`, the T/C by setting is: (dose: 25.0 mg/kg/injection, schedule: Q01DX009 (ip), vehicle: saline) 105 % of control; (dose: 50.0 mg/kg/injection, schedule: Q01DX009 (ip), vehicle: saline) 97 % of control; under setting [11], 91 % of control and 105 % of control.

For `c1ccc2c(c1)CCc1ccccc1C2NC1=NCCO1`, the T/C reads like this: (dose: 6.25 mg/kg/injection, schedule: Q01DX009 (ip), vehicle: saline with Tween-80) 104 % of control; under setting [13], 100 % of control; under setting [4], 92 % of control.

With `COc1cccc2c1C(=O)c1c(O)c3c(c(O)c1C2=O)CC(O)(C(C)=O)CC3O` (configuration not stated), the T/C is 91 % of control (dose: 0.12 mg/kg/injection, schedule: Q01DX009 (ip), vehicle: saline); 94 % of control (dose: 0.12 mg/kg/injection, schedule: Q04DX003 (ip), vehicle: saline); 100 % of control (dose: 0.25 mg/kg/injection, schedule: Q04DX003 (ip), vehicle: saline); 86 % of control (dose: 0.5 mg/kg/injection, schedule: Q01DX009 (ip), vehicle: saline); 105 % of control (dose: 0.5 mg/kg/injection, schedule: Q04DX003 (ip), vehicle: saline); 94 % of control (dose: 1.0 mg/kg/injection, schedule: Q01DX009 (ip), vehicle: saline). Further, the T/C is 97 % of control (dose: 1.0 mg/kg/injection, schedule: Q04DX003 (ip), vehicle: saline); 102 % of control (dose: 2.0 mg/kg/injection, schedule: Q01DX009 (ip), vehicle: saline); 102 % of control (dose: 2.0 mg/kg/injection, schedule: Q04DX003 (ip), vehicle: saline); 100 % of control (dose: 4.0 mg/kg/injection, schedule: Q01DX009 (ip), vehicle: saline); 108 % of control (dose: 4.0 mg/kg/injection, schedule: Q04DX003 (ip), vehicle: saline); 105 % of control (dose: 8.0 mg/kg/injection, schedule: Q01DX009 (ip), vehicle: saline).

As to `O=C1c2ccccc2C(=O)N1CC[P+](c1ccccc1)(c1ccccc1)c1ccccc1`, the T/C is, setting by setting: (dose: 1.56 mg/kg/injection, schedule: Q01DX009 (ip), vehicle: water) 98 % of control; (dose: 3.13 mg/kg/injection, schedule: Q01DX009 (ip), vehicle: water) 100 % of control; (dose: 6.25 mg/kg/injection, schedule: Q01DX009 (ip), vehicle: water) 109 % of control; (dose: 12.5 mg/kg/injection, schedule: Q01DX009 (ip), vehicle: water) 107 % of control.

As to `Cc1cc(=O)n(C)c2ccccc12`, the T/C under setting [1] was 90 % of control; the T/C under setting [2] is 90 % of control; the T/C under setting [3] was 90 % of control; the T/C (dose: 50.0 mg/kg/injection, schedule: Q04DX003 (ip), vehicle: Klucel (hydroxypropylcellulose) (HPC)) is 107 % of control; the T/C under setting [7] is 90 % of control; the T/C (dose: 100.0 mg/kg/injection, schedule: Q04DX003 (ip), vehicle: Klucel (hydroxypropylcellulose) (HPC)) was 102 % of control. Besides, the T/C (dose: 200.0 mg/kg/injection, schedule: Q04DX003 (ip), vehicle: Klucel (hydroxypropylcellulose) (HPC)) was 102 % of control.

On to `C=CCOCC(O)CN(C)C1CCCCC1` (configuration not stated), for which the T/C is, setting by setting: (dose: 12.5 mg/kg/injection, schedule: Q04DX003 (ip), vehicle: saline) 121 % of control; (dose: 25.0 mg/kg/injection, schedule: Q04DX003 (ip), vehicle: saline) 100 % of control; under setting [10], 100 % of control and 104 % of control.

Take `Cc1ccc(S(=O)(=O)NC(CSSCC(NS(=O)(=O)c2ccc(C)cc2)C(=O)OC(C)(C)C)C(=O)OC(C)(C)C)cc1` (configuration not stated): the T/C under setting [3] is 107 % of control.
